In patent publication US20230159527A1, “COMPOUNDS AS BCL-2 INHIBITORS” (Fochon Pharmaceuticals, Ltd., priority 2020, published 2023):

Legend:
Assay type in all cases: cell-based
[1] = test system: RS4;11-BCL-2 F104L cells; test: Cell proliferation assay, engineered RS4;11 cells stably overexpressing BCL-2 F104L (MTS, 168 h); details: Homo sapiens, read-out: RS4, 11 BCL2-F104L
Protocol: MTS testing kit was purchased from Promega (Madison, Wis., USA). The RPMI-1640, Fetal bovine serum and Penicillin-Streptomycin were purchased from BI (Biological Industries, Beit Haemek, Israel). Puromycin was purchased from Beyotime (shanghai, China). Dimethyl sulfoxide (DMSO) was purchased from Sigma (St. Louis, Mo., USA). RS4;1l-BCL-2 G101V and RS4;11-BCL-2 F104L cells were cultured in RPM11640 supplemented with 1 ug/mL puromycin, 100 U/mL Penicillin-Streptomycin and 10% FBS.
To investigate whether a compound is able to inhibit the activity of BCL-2 mutation in cells, a mechanism-based assay using engineered cell lines stably overexpressing BCL-2 mutation ([…] and […]) was developed. In this assay, the inhibition of BCL-2 mutation was reflected by the inhibition of cell proliferation of RS4;11-BCL-2 G101V and RS4;11-BCL-2 F104L cells. Cells were plated into 96-well plates at optimized cell density (RS4;11-BCL-2 G101V: 5000 cells/well; RS4;11-BCL-2 F104L: 5000 cells/well). Plates were incubated at 37° C., with 5% CO2 for 4 h. Compounds were serially diluted to the final-concentrations of 10000, 3333.3, 1111.1, 370.4, 123.5, 41.2, 13.7, 4.6 and 1.4 nM and added to the plates. Plates were incubated at 37° C., with 5% CO2 for 168 h. 20 μl MTS was added into each well and the plates were incubated at 37° C., with 5% CO2 exactly for 2 h. The absorbance was measured by a microplate reader at 490 nm. IC50 values were calculated using GraphPad Prism 5.0 software.

[2] = test system: Toledo cells; test: Cell proliferation assay, Toledo cells (MTS, 72 h); details: Homo sapiens, Toledo cells, MTS, read-out: Toledo IC50
In short: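 Toledo cells (30000/well, RPMI-1640 with 10% FBS) were preincubated for 4 h. They were then exposed to nine compound concentrations from 10000 to 1.5 nM for 72 h at 37 °C, 5% CO2. MTS was added for 2 h and absorbance read at 490 nm to give IC50.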

[3] = test system: DoHH2 cells; test: Cell proliferation assay, DoHH2 cells (MTS, 120 h); details: Homo sapiens, DOHH-2
In short: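 DoHH2 cells in RPMI-1640 with 10% FBS were plated at 5000/well and rested 4 h. They were then exposed to compound at nine final concentrations (10000 to 1.5 nM) for 120 h at 37 °C. Viability was read by MTS (2 h, A490) and IC50 derived by curve fitting.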

Row | Compound | IC50 [1] | IC50 [2] | IC50 [3]
1 | CCc1nc2[nH]cc(F)c2cc1Oc1cc(N2CCC3(CC2)CC(N2CCC[C@H]2c2ccccc2C(C)C)C3)ccc1C(=O)NS(=O)(=O)c1cc2c(c([N+](=O)[O-])c1)N[C@@H]([C@H]1CC[C@](C)(O)CC1)CO2 (single isomer, unassigned) [Example D-245, 2-((6-ethyl-3-fluoro-1H-pyrrolo [2,3-b]pyridin-5-yl)oxy)-N-(((S)-3-((1r,4S)-4-hydroxy-4-methylcyclohexyl)-5-nitro-3,4-dihydro-2H-benzo[b][1,4]oxazin-7-yl)sulfonyl)-4-(2-((R or S)-2-(2-isopropylphenyl)pyrrolidin-1-yl)-7-azaspiro[3.5]nonan-7-yl)benzamide] | 15 nM | – | –
2 | CO[C@@H](C)COc1nc2[nH]cc(F)c2cc1Oc1cc(N2CCC3(CC2)CN([C@H]2CCC[C@H]2c2ccccc2C(C)C)C3)ccc1C(=O)NS(=O)(=O)c1cc2c(c([N+](=O)[O-])c1)N[C@@H]([C@H]1CC[C@](C)(O)CC1)CO2 (single isomer, unassigned) [Example D-241a, 2-((3-fluoro-6-((S)-2-methoxypropoxy)-1H-pyrrolo[2,3-b]pyridin-5-yl)oxy)-N-((S)-3-((1r,4S)-4-hydroxy-4-methylcyclohexyl)-5-nitro-3,4-dihydro-2H-benzo[b][1,4]oxazin-7-yl)sulfonyl)-4-(2-((1S,2S or 1R,2R)-2-(2-isopropylphenyl)cyclopentyl)-2,7-diazaspiro[3.5]nonan-7-yl)benzamide] | 11 nM | – | –
3 | Cc1nc2[nH]cc(F)c2cc1Oc1cc(N2CCC3(CC2)CN([C@H]2CCC[C@H]2c2ccccc2C(C)C)C3)ccc1C(=O)NS(=O)(=O)c1cc2c(c([N+](=O)[O-])c1)N[C@@H]([C@H]1CC[C@](C)(O)CC1)CO2 (single isomer, unassigned) [Example D-240, 2-((3-fluoro-6-methyl-1H-pyrrolo [2,3-b]pyridin-5-yl)oxy)-N-(((S)-3-((1r,4S)-4-hydroxy-4-methylcyclohexyl)-5-nitro-3,4-dihydro-2H-benzo[b][1,4]oxazin-7-yl)sulfonyl)-4-(2-((1S,2S or 1R,2R)-2-(2-isopropylphenyl)cyclopentyl)-2,7-diazaspiro[3.5]nonan-7-yl)benzamide] | 10 nM | 1 nM | –
4 | CO[C@@H](C)COc1nc2[nH]cc(F)c2cc1Oc1cc(N2CCC3(CC2)CN([C@H]2CCC[C@H]2c2ccccc2C(C)C)C3)ccc1C(=O)NS(=O)(=O)c1cnc(NC[C@H]2CC[C@](C)(O)CC2)c([N+](=O)[O-])c1 (single isomer, unassigned) [Example A-155a, 2-((3-fluoro-6-((S)-2-methoxypropoxy)-1H-pyrrolo[2,3-b]pyridin-5-yl)oxy)-N-((6-(((1r,4r)-4-hydroxy-4-methylcyclohexyl)methyl)amino)-5-nitropyridin-3-yl)sulfonyl)-4-(2-((1S,2S or 1R,2R)-2-(2-isopropylphenyl)cyclo-pentyl)-2,7-diazaspiro[3.5]nonan-7-yl) benzamide] | 27 nM | – | –
5 | CC(C)c1ccccc1[C@@H]1CCC[C@@H]1N1CC2(CCN(c3ccc(C(=O)NS(=O)(=O)c4ccc(NC[C@H]5CC[C@](C)(O)CC5)c([N+](=O)[O-])c4)c(Oc4cc5cc[nH]c5nc4F)c3)CC2)C1 (single isomer, unassigned) [Example D-116, 2-((6-fluoro-1H-pyrrolo[2,3-b]pyridin-5-yl)oxy)-N-((4-((1r,4r)-4-hydroxy-4-methylcyclohexyl)methyl)amino)-3-nitrophenyl) sulfonyl)-4-(2-((1S,2S or 1R,2R)-2-(2-isopropylphenyl) cyclopentyl)-2,7-diazaspiro[3.5] nonan-7-yl)benzamide] | 1 nM | 1 nM | –
6 | CC(C)c1ccccc1[C@@H]1CCC[C@@H]1N1CC2(CCN(c3ccc(C(=O)NS(=O)(=O)c4cnc(NC[C@H]5CC[C@](C)(O)CC5)c([N+](=O)[O-])c4)c(Oc4cc5cc[nH]c5nc4F)c3)CC2)C1 (single isomer, unassigned) [Example A-158, 2-((6-fluoro-1H-pyrrolo[2,3-b]pyridin-5-yl)oxy)-N-((6-((((1r,4r)-4-hydroxy-4-methylcyclohexyl)methyl)amino)-5-nitropyridin-3-yl)sulfonyl)-4-(2-((1S,2S or 1R,2R)-2-(2-isopropylphenyl)cyclo-pentyl)-2,7-diazaspiro[3.5]nonan-7-yl) benzamide] | 8 nM | 1 nM | –
7 | CCc1nc2[nH]cc(F)c2cc1Oc1cc(N2CCC3(CC2)CN([C@H]2CCC[C@H]2c2ccccc2C(C)C)C3)ccc1C(=O)NS(=O)(=O)c1cnc(NC[C@H]2CC[C@](C)(O)CC2)c([N+](=O)[O-])c1 (single isomer, unassigned) [Example A-157, 2-((6-ethyl-3-fluoro-1H-pyrrolo[2,3-b]pyridin-5-yl)oxy)-N-((6-((((1r,4r) 4-hydroxy-4-methylcyclohexyl)methyl)amino)-5-nitropyridin-3-yl)sulfonyl)-4-(2-((1S,2S or 1R,2R)-2-(2-isopropylphenyl)cyclo-pentyl)-2,7-diazaspiro[3.5]nonan-7-yl) benzamide] | 23 nM | – | –
8 | CO[C@@H](C)COc1nc2[nH]cc(F)c2cc1Oc1cc(N2CCC3(CC2)CC(N2CCC[C@H]2c2ccccc2C(C)C)C3)ccc1C(=O)NS(=O)(=O)c1cc2c(c([N+](=O)[O-])c1)N[C@@H]([C@H]1CC[C@](C)(O)CC1)CO2 (single isomer, unassigned) [Example D-243a, 2-((3-fluoro-6-((S)-2-methoxypropoxy)-1H-pyrrolo[2,3-b]pyridin-5-yl)oxy)-N-(((S)-3-((1r,4S)-4-hydroxy-4-methylcyclohexyl)-5-nitro-3,4-dihydro-2H-benzo[b][1,4]oxazin-7-yl)sulfonyl)-4-(2-((R or S)-2-(2-isopropylphenyl)pyrrolidin-1-yl)-7-azaspiro[3.5]nonan-7-yl) benzamide] | 13 nM | – | –
9 | CCc1nc2[nH]cc(F)c2cc1Oc1cc(N2CCC3(CC2)CN([C@H]2CCC[C@H]2c2ccccc2C(C)C)C3)ccc1C(=O)NS(=O)(=O)c1cc2c(c([N+](=O)[O-])c1)N[C@@H]([C@H]1CC[C@](C)(O)CC1)CO2 (single isomer, unassigned) [Example D-239, 2-((6-ethyl-3-fluoro-1H-pyrrolo [2,3-b]pyridin-5-yl)oxy)-N-(((S)-3-((1r,4S)-4-hydroxy-4-methylcyclohexyl)-5-nitro-3,4-dihydro-2H-benzo[b][1,4]oxazin-7-yl)sulfonyl)-4-(2-((1S,2S or 1R,2R)-2-(2-isopropylphenyl)cyclopentyl)-2,7-diazaspiro[3.5]nonan-7-yl)benzamide] | 5 nM | – | –
10 | CO[C@H](C)COc1nc2[nH]cc(F)c2cc1Oc1cc(N2CCC3(CC2)CC(N2CCC[C@H]2c2ccccc2C(C)C)C3)ccc1C(=O)NS(=O)(=O)c1cc2c(c([N+](=O)[O-])c1)N[C@@H]([C@H]1CC[C@](C)(O)CC1)CO2 (single isomer, unassigned) [Example D-243b, 2-((3-fluoro-6-((R)-2-methoxypropoxy)-1H-pyrrolo[2,3-b]pyridin-5-yl)oxy)-N-(((S)-3-((1r,4S)-4-hydroxy-4-methylcyclohexyl)-5-nitro-3,4-dihydro-2H-benzo[b][1,4]oxazin-7-yl)sulfonyl)-4-(2-((R or S)-2-(2-isopropylphenyl)pyrrolidin-1-yl)-7-azaspiro[3.5]nonan-7-yl) benzamide] | 20 nM | – | –
11 | CCc1nc2[nH]cc(F)c2cc1Oc1cc(N2CCC3(CC2)CN([C@H]2CCC[C@H]2c2ccccc2C(C)C)C3)ccc1C(=O)NS(=O)(=O)c1ccc(NC[C@H]2CC[C@](C)(O)CC2)c([N+](=O)[O-])c1 (single isomer, unassigned) [Example D-235, 2-((6-ethyl-3-fluoro-1H-pyrrolo [2,3-b]pyridin-5-yl)oxy)-N-((4-(((1r,4r)-4-hydroxy-4-methylcyclohexyl)methyl)amino)-3-nitrophenyl) sulfonyl)-4-(2-((1S,2S or 1R,2R)-2-(2-isopropylphenyl)cyclopentyl)-2,7-diazaspiro[3.5] nonan-7-yl)benzamide] | 10 nM | – | –
12 | CC(C)c1ccccc1[C@@H]1COCCN1C1CC2(CCN(c3ccc(C(=O)NS(=O)(=O)c4cnc(NC[C@H]5CC[C@](C)(O)CC5)c([N+](=O)[O-])c4)c(Oc4cnc5[nH]cc(F)c5c4)c3)CC2)C1 (single isomer, unassigned) [Example A-128, 2-((3-fluoro-1H-pyrrolo[2,3-b]pyridin-5-yl)oxy)-N-((6-((((1r,4r)-4-hydroxy-4-methylcyclohexyl)methyl)amino)-5-nitropyridin-3-yl)sulfonyl)-4-(2-((R or S)-3-(2-isopropylphenyl)morpholino)-7-azaspiro[3.5]nonan-7-yl) benzamide] | – | 1 nM | ≤ 1 nM
